# Read-outs that look alike come from different tables or passages of the source.
# How the values were obtained:
# Escherichia coli = test: Germicidal suspension assay, E. coli; type: cell-based; settings: for % survival at 1 min: 37° C.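 For all read-outs here: surviving cells were scored as colonies on nutrient agar after 24 h at 37° C, survival given as percent of untreated controls.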
# Procedure: E. coli cells from an overnight Trypticase soy nutrient agar (TSA) were resuspended to a density measured as an absorbance of 1.0 at 600 nm in sterile ddH2 O. The reaction of the cells with each of the bactericidal test formulations analyzed was started by addition of 30 μl of cells to 970 μl of test formulation. The reaction mixture was incubated at 37° C for at least 1 minute and then centrifuged in a microfuge for 1 minute. The cell pellet was washed by resuspension in 1 ml of neutralization buffer. (The neutralization buffer: 50 mM Tris-HCl, pH 7.0, 5 mM MgSO4, 20 mM CaCl2, 0.1 M NaCl and 0.1% gelatin was prepared by first making Tris buffer and adjusting the pH. The salts and gelatin were then added and the solution stirred with heat until the solution was clear. The solution was then autoclaved for 20 min. The neutralization buffer was used without dilution.) The cells were centrifuged in a microfuge for 1 minute and resuspended in 1 ml of neutralization buffer. The viable count was determined by spreading 100 μl of bacterial suspension and serial dilutions thereof in neutralization buffer on nutrient agar and scoring surviving colonies after 24 h at 37° C. Percent survival relative to untreated controls was calculated from the scored values.
# [1] = 0.1% w/v acetate pH 3.5, nisin 100 μg/ml and/or EDTA 1.0 mM where present, initial 2 × 10^7 cfu/ml
# [2] = 0.3% w/v acetate pH 3.5, nisin 100 μg/ml and/or EDTA 1.0 mM where present, initial 2 × 10^7 cfu/ml
# [3] = 1.0% w/v acetate pH 3.5, nisin 100 μg/ml and/or EDTA 1.0 mM where present, initial 2 × 10^7 cfu/ml
# [4] = 3.0% w/v acetate pH 3.5, nisin 100 μg/ml and/or EDTA 1.0 mM where present, initial 2 × 10^7 cfu/ml
# [5] = 0.1% w/v lactate pH 3.5, nisin 100 μg/ml and/or EDTA 1.0 mM where present, initial 5 × 10^7 cfu/ml
# [6] = 0.1% w/v succinate pH 3.5, nisin 100 μg/ml and/or EDTA 1.0 mM where present, initial 3.4 × 10^6 cfu/ml
# [7] = 0.3% w/v lactate pH 3.5, nisin 100 μg/ml and/or EDTA 1.0 mM where present, initial 5 × 10^7 cfu/ml
# [8] = 0.3% w/v succinate pH 3.5, nisin 100 μg/ml and/or EDTA 1.0 mM where present, initial 3.4 × 10^6 cfu/ml
# [9] = 1.0% w/v lactate pH 3.5, nisin 100 μg/ml and/or EDTA 1.0 mM where present, initial 5 × 10^7 cfu/ml
# [10] = 1.0% w/v succinate pH 3.5, nisin 100 μg/ml and/or EDTA 1.0 mM where present, initial 3.4 × 10^6 cfu/ml
# [11] = 3.0% w/v lactate pH 3.5, nisin 100 μg/ml and/or EDTA 1.0 mM where present, initial 5 × 10^7 cfu/ml
# [12] = 3.0% w/v succinate pH 3.5, nisin 100 μg/ml and/or EDTA 1.0 mM where present, initial 3.4 × 10^6 cfu/ml
compound,measurement,setting,value
CC(=O)O [Acetate],% survival at 1 min,Escherichia coli; [1],55%
same,% survival at 1 min,Escherichia coli; [2],80%
same,% survival at 1 min,Escherichia coli; [3],90%
same,% survival at 1 min,Escherichia coli; [4],10.1%
O=C(O)CC(O)(CC(=O)O)C(=O)O [Citrate],% survival at 1 min,"Escherichia coli; 0.1% w/v citrate pH 3.5, nisin 100 μg/ml and/or EDTA 1.0 mM where present, initial 5 × 10^7 cfu/ml",100%
same,% survival at 1 min,"Escherichia coli; 0.3% w/v citrate pH 3.5, nisin 100 μg/ml and/or EDTA 1.0 mM where present, initial 5 × 10^7 cfu/ml",56.3%
same,% survival at 1 min,"Escherichia coli; 1.0% w/v citrate pH 3.5, nisin 100 μg/ml and/or EDTA 1.0 mM where present, initial 5 × 10^7 cfu/ml",72.9%
same,% survival at 1 min,"Escherichia coli; 3.0% w/v citrate pH 3.5, nisin 100 μg/ml and/or EDTA 1.0 mM where present, initial 5 × 10^7 cfu/ml",100%
same,survival of E. coli on exposure to the agent by itself,Escherichia coli,unaffected
same,% survival at 5 min,"Helicobacter pylori; strain ATCC43504, 0.1% citrate adjusted to pH 2.5, nisin 100 μg/ml where present, 37° C.",0.14%
same,% survival at 5 min,"Helicobacter pylori; strain ATCC43504, 0.1% citrate adjusted to pH 3.0, nisin 100 μg/ml where present, 37° C.",< 0.004%
same,% survival at 5 min,"Helicobacter pylori; strain ATCC43504, 0.1% citrate adjusted to pH 3.5, nisin 100 μg/ml where present, 37° C.",< 0.004%
same,% survival at 5 min,"Helicobacter pylori; strain ATCC43504, 0.1% citrate adjusted to pH 4.0, nisin 100 μg/ml where present, 37° C.",0.36%
same,% survival at 5 min,"Helicobacter pylori; strain ATCC43504, 0.1% citrate adjusted to pH 5.0, nisin 100 μg/ml where present, 37° C.",68.5%
same,% survival at 5 min,"Helicobacter pylori; strain ATCC43504, 0.3% citrate adjusted to pH 2.5, nisin 100 μg/ml where present, 37° C.",0.027%
same,% survival at 5 min,"Helicobacter pylori; strain ATCC43504, 0.3% citrate adjusted to pH 3.0, nisin 100 μg/ml where present, 37° C.",< 0.027%
same,% survival at 5 min,"Helicobacter pylori; strain ATCC43504, 0.3% citrate adjusted to pH 3.5, nisin 100 μg/ml where present, 37° C.",29.7%
same,% survival at 5 min,"Helicobacter pylori; strain ATCC43504, 0.3% citrate adjusted to pH 4.0, nisin 100 μg/ml where present, 37° C.",17.6%
same,% survival at 5 min,"Helicobacter pylori; strain ATCC43504, 0.3% citrate adjusted to pH 5.0, nisin 100 μg/ml where present, 37° C.",100%
same,% survival at 5 min,"Helicobacter pylori; strain ATCC43504, pH 5.0, citrate 0.1% w/v, nisin 100 μg/ml where present, first of two experiments (initial 1.40 × 10^5 cfu/ml)",83.6%
same,% survival at 5 min,"Helicobacter pylori; strain ATCC43504, pH 5.0, citrate 0.1% w/v, nisin 100 μg/ml where present, second of two experiments (initial 3.26 × 10^5 cfu/ml)",25.8%
same,% survival at 5 min,"Helicobacter pylori; strain ATCC43504, pH 5.0, citrate 0.3% w/v, nisin 100 μg/ml where present, first of two experiments (initial 1.40 × 10^5 cfu/ml)",42.9%
same,% survival at 5 min,"Helicobacter pylori; strain ATCC43504, pH 5.0, citrate 0.3% w/v, nisin 100 μg/ml where present, second of two experiments (initial 3.26 × 10^5 cfu/ml)",4.39%
same,% survival at 5 min,"Helicobacter pylori; strain ATCC43504, pH 5.0, citrate 1.0% w/v, nisin 100 μg/ml where present, first of two experiments (initial 1.40 × 10^5 cfu/ml)",22.1%
same,% survival at 5 min,"Helicobacter pylori; strain ATCC43504, pH 5.0, citrate 1.0% w/v, nisin 100 μg/ml where present, second of two experiments (initial 3.26 × 10^5 cfu/ml)",50.9%
same,% survival at 5 min,"Helicobacter pylori; strain ATCC43504, pH 7.0, citrate 0.1% w/v, nisin 100 μg/ml where present, initial 9.62 × 10^4 cfu/ml",17.7%
same,% survival at 5 min,"Helicobacter pylori; strain ATCC43504, pH 7.0, citrate 0.3% w/v, nisin 100 μg/ml where present, initial 9.62 × 10^4 cfu/ml",8.94%
same,% survival at 5 min,"Helicobacter pylori; strain ATCC43504, pH 7.0, citrate 1.0% w/v, nisin 100 μg/ml where present, initial 9.62 × 10^4 cfu/ml",0.82%
same,% survival at 5 min,"Helicobacter pylori; strain ATCC43579, 0.1% citrate adjusted to pH 2.5, nisin 100 μg/ml where present, 37° C.",< 5.0 × 10^-4%
same,% survival at 5 min,"Helicobacter pylori; strain ATCC43579, 0.1% citrate adjusted to pH 3.0, nisin 100 μg/ml where present, 37° C.",1.1 × 10^-3%
same,% survival at 5 min,"Helicobacter pylori; strain ATCC43579, 0.1% citrate adjusted to pH 3.5, nisin 100 μg/ml where present, 37° C.",0.18%
same,% survival at 5 min,"Helicobacter pylori; strain ATCC43579, 0.1% citrate adjusted to pH 4.0, nisin 100 μg/ml where present, 37° C.",9.56%
same,% survival at 5 min,"Helicobacter pylori; strain ATCC43579, 0.1% citrate adjusted to pH 5.0, nisin 100 μg/ml where present, 37° C.",97.2%
same,% survival at 5 min,"Helicobacter pylori; strain ATCC43579, pH 5.0, 0.1% citrate, nisin 0, 37° C., initial 3.19 × 10^7 cfu/ml",86.2%
same,% survival at 5 min,"Helicobacter pylori; strain ATCC43579, pH 5.0, citrate 0.1% w/v, nisin 100 μg/ml where present, initial 1.04 × 10^4 cfu/ml",100%
same,% survival at 5 min,"Helicobacter pylori; strain ATCC43579, pH 5.0, citrate 0.3% w/v, nisin 100 μg/ml where present, initial 1.04 × 10^4 cfu/ml",100%
same,% survival at 5 min,"Helicobacter pylori; strain ATCC43579, pH 5.0, citrate 1.0% w/v, nisin 100 μg/ml where present, initial 1.04 × 10^4 cfu/ml",100%
same,% survival at 5 min,"Helicobacter pylori; strain ATCC43579, pH 7.0, citrate 0.1% w/v, nisin 100 μg/ml where present",12.1%
same,% survival at 5 min,"Helicobacter pylori; strain ATCC43579, pH 7.0, citrate 0.3% w/v, nisin 100 μg/ml where present",0.26%
same,% survival at 5 min,"Helicobacter pylori; strain ATCC43579, pH 7.0, citrate 1.0% w/v, nisin 100 μg/ml where present",0.02%
O=C(O)CN(CCN(CC(=O)O)CC(=O)O)CC(=O)O [EDTA],% survival at 1 min,Escherichia coli; [1],40%
same,% survival at 1 min,Escherichia coli; [5],5.1%
same,% survival at 1 min,Escherichia coli; [6],56.8%
same,% survival at 1 min,Escherichia coli; [2],25%
same,% survival at 1 min,Escherichia coli; [7],0.46%
same,% survival at 1 min,Escherichia coli; [8],63.6%
same,% survival at 1 min,Escherichia coli; [3],25%
same,% survival at 1 min,Escherichia coli; [9],0.91%
same,% survival at 1 min,Escherichia coli; [10],46.2%
same,% survival at 1 min,Escherichia coli; [4],10.7%
same,% survival at 1 min,Escherichia coli; [11],1.58%
same,% survival at 1 min,Escherichia coli; [12],43.2%
same,survival of E. coli on exposure to the agent by itself,Escherichia coli,unaffected
same,% survival at 1 min,"Escherichia coli; pH 2.0, 20 mM Na acetate buffer, nisin 100 μg/ml and/or EDTA 1.0 mM, initial 4 × 10^7 cfu/ml",0.07%
same,% survival at 1 min,"Escherichia coli; pH 3.0, 20 mM Na acetate buffer, nisin 100 μg/ml and/or EDTA 1.0 mM, initial 4 × 10^7 cfu/ml",5.41%
same,% survival at 5 min,"Helicobacter pylori; strain ATCC43504, EDTA 1.0 mM, nisin 100 μg/ml where present, pH 2.5, first of two experiments (initial 8.6 × 10^4 cfu/ml)",0.023%
same,% survival at 5 min,"Helicobacter pylori; strain ATCC43504, EDTA 1.0 mM, nisin 100 μg/ml where present, pH 2.5, second of two experiments (initial 9.82 × 10^5 cfu/ml)",0.013%
same,% survival at 5 min,"Helicobacter pylori; strain ATCC43504, EDTA 1.0 mM, nisin 100 μg/ml where present, pH 3.0, first of two experiments (initial 8.6 × 10^4 cfu/ml)",< 0.021%
same,% survival at 5 min,"Helicobacter pylori; strain ATCC43504, EDTA 1.0 mM, nisin 100 μg/ml where present, pH 3.0, second of two experiments (initial 9.82 × 10^5 cfu/ml)",< 0.001%
same,% survival at 5 min,"Helicobacter pylori; strain ATCC43504, EDTA 1.0 mM, nisin 100 μg/ml where present, pH 3.5, first of two experiments (initial 8.6 × 10^4 cfu/ml)",94.2%
same,% survival at 5 min,"Helicobacter pylori; strain ATCC43504, EDTA 1.0 mM, nisin 100 μg/ml where present, pH 3.5, second of two experiments (initial 9.82 × 10^5 cfu/ml)",0.015%
same,% survival at 5 min,"Helicobacter pylori; strain ATCC43504, EDTA 1.0 mM, nisin 100 μg/ml where present, pH 4.0, first of two experiments (initial 8.6 × 10^4 cfu/ml)",11.6%
same,% survival at 5 min,"Helicobacter pylori; strain ATCC43504, EDTA 1.0 mM, nisin 100 μg/ml where present, pH 4.0, second of two experiments (initial 9.82 × 10^5 cfu/ml)",16.5%
same,% survival at 5 min,"Helicobacter pylori; strain ATCC43504, EDTA 1.0 mM, nisin 100 μg/ml where present, pH 5.0, first of two experiments (initial 8.6 × 10^4 cfu/ml)",10.0%
same,% survival at 5 min,"Helicobacter pylori; strain ATCC43504, EDTA 1.0 mM, nisin 100 μg/ml where present, pH 5.0, second of two experiments (initial 9.82 × 10^5 cfu/ml)",100%
same,% survival at 5 min,"Helicobacter pylori; strain ATCC43526, pH 7.0, EDTA 1.0 mM, nisin 100 μg/ml where present, initial 3.40 × 10^4 cfu/ml",94.1%
same,% survival at 5 min,"Helicobacter pylori; strain ATCC43526, pH 7.0, EDTA 10 mM, nisin 100 μg/ml where present, initial 3.40 × 10^4 cfu/ml",21.0%
same,% survival at 5 min,"Helicobacter pylori; strain ATCC43526, pH 7.0, EDTA 100 mM, nisin 100 μg/ml where present, initial 3.40 × 10^4 cfu/ml",1.62%
same,% survival at 5 min,"Helicobacter pylori; strain ATCC43579, pH 5.0, EDTA 1.0 mM, nisin 100 μg/ml where present, initial 2.04 × 10^5 cfu/ml",13.63%
same,% survival at 5 min,"Helicobacter pylori; strain ATCC43579, pH 5.0, EDTA 10 mM, nisin 100 μg/ml where present, initial 2.04 × 10^5 cfu/ml",8.82%
same,% survival at 5 min,"Helicobacter pylori; strain ATCC43579, pH 5.0, EDTA 100 mM, nisin 100 μg/ml where present, initial 2.04 × 10^5 cfu/ml",0.43%
"CC(O)C(=O)O (stereo not shown) [Lactate, lactate]",% survival at 1 min,Escherichia coli; [5],22.2%
same,% survival at 1 min,Escherichia coli; [7],46.7%
same,% survival at 1 min,Escherichia coli; [9],35.6%
same,% survival at 1 min,Escherichia coli; [11],4.2%
"O=C(O)CCC(=O)O [Succinate, succinate]",% survival at 1 min,Escherichia coli; [6],85.5%
same,% survival at 1 min,Escherichia coli; [8],29.9%
same,% survival at 1 min,Escherichia coli; [10],36.7%
same,% survival at 1 min,Escherichia coli; [12],13.9%
